Results: BigSolDB 2.1

C=C1C[C@]23C[C@H]1CC[C@H]2[C@@]12CC[C@H](O)[C@@](C)(C(=O)O1)[C@H]2[C@@H]3C(=O)O
solubility (mole fraction)
Settings	in acetone	in acetonitrile	in ethanol	in ethyl acetate	in isopropanol	in methanol	in n-butanol	in water
278.15 K	0.053	0.00391	0.000809	0.0105	0.0691	0.0466	0.0588	9e-06
283.15 K	0.057	0.00457	0.000911	0.0118	0.0745	0.051	0.0613	1.2e-05
288.15 K	0.0596	0.00529	0.00107	0.0134	0.0775	0.0559	0.0674	1.7e-05
293.15 K	0.0645	0.00647	0.00118	0.0157	0.0859	0.0637	0.0723	2.1e-05
298.15 K	0.0692	0.00776	0.00133	0.0172	0.0916	0.0705	0.0762	2.8e-05
303.15 K	0.0759	0.00907	0.00159	0.0195	0.0969	0.0743	0.0798	3.4e-05
308.15 K	0.0801	0.0108	0.00187	0.0211	0.103	0.0805	0.0836	4.4e-05
313.15 K	0.0862	0.0124	0.00217	0.0239	0.11	0.0882	0.0872	5.3e-05
318.15 K	0.0917	0.0135	0.00257	0.0265	0.12	0.0933	0.0931	6.1e-05
323.15 K	0.0983	0.0149	0.00273	0.0299	0.123	0.101	0.1	7.3e-05
328.15 K	0.106	0.0168	0.00318	0.0325	0.131	0.11	0.109	9.2e-05
333.15 K	0.112	0.0188	0.00387	0.0357	0.14	0.121	0.119	0.00012
